{
  "source": "patent US5846525A",
  "about": "“Protected biopolymers for oral administration and methods of using same” (Trega Biosciences, Inc., priority 1995, dated 1998)",
  "key": {"chymotrypsin [1]": {"test_system": "chymotrypsin", "assay": "Stability of peptide-ion exchange resin complex to enzymatic degradation by chymotrypsin", "type": "in vitro ADME", "settings": "isolated enzyme chymotrypsin, pH 7, unbound control, read-out: CRA-1 remaining", "experimental": "(§1) Fifty mg or 100 mg of the complex was suspended in 5 ml of PBS (pH 7.0) containing either 1 mg/ml trypsin or 1 mg/ml chymotrypsin. The suspensions were rotated at 200 rpm in an incubator at 37° C. for 2 hr. Following incubation, the suspension was vacuum-filtered and the filtrate was analyzed by HPLC to determine the amount of CRA-1 bound to the IRP-64. […] After 1 hr, the suspension was vacuum-[…] ion exchange resin was washed and filtered a second time with 50 ml 2M KCl. The filtrate and wash were analyzed by HPLC to determine the amount of drug recovered from the ion exchange resin."}, "chymotrypsin [2]": {"biological_target": "T1, chymotrypsin (Bos taurus, UniProt P00766)", "assay": "Stability of peptide-ion exchange resin complex to enzymatic degradation by chymotrypsin", "type": "in vitro ADME", "settings": "unbound control", "experimental": "as §1"}, "[3]": {"assay": "Binding of CRA-1 to Amberlite IRP-64 cation exchange resin (HPLC of filtrate)", "type": "physicochemical", "experimental": "A 1 mg/ml CRA-1 solution was prepared by dissolving 42.5 mg CRA-1 in 42.5 ml PBS. Fifty mg Amberlite® IRP-64 (\"IRP-64\") (Rohm and Haas) was added to 5 ml CRA-1 solution (5 mg CRA-1) to achieve a peptide:resin ratio of 1:10. The mixture was adjusted to pH 6.0 and stirred for 1 hr. The suspension was filtered and the filtrate was analyzed by HPLC (see Example II.A) to determine the total amount of CRA-1 bound to IRP-64. Binding also was performed using CRA-1: IRP-64 ratios of 1:1, 1:2 and 1:20."}, "trypsin [4]": {"biological_target": "T2, trypsin (Bos taurus, UniProt P00760)", "T2 construct": "gene PRSS1", "T2 sequence (P00760 24-246)": "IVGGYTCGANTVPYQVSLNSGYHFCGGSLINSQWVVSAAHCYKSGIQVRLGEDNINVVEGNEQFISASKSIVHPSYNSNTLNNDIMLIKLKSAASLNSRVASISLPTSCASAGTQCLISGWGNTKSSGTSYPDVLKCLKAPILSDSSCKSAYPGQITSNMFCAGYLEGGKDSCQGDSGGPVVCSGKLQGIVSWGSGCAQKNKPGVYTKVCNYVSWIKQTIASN", "assay": "Susceptibility of free peptide to enzymatic degradation by trypsin", "type": "in vitro ADME", "settings": "37° C.", "experimental": "(§2) Phosphate buffered saline (PBS) solutions were prepared and adjusted to pH 5.0, 7.0 or 8.0. CRA-1 was dissolved into each of the PBS solutions to a final concentration of 3 mg/ml. Samples of 3 mg/ml trypsin and 3 mg/ml chymotrypsin also were prepared in PBS at pH 5.0, 7.0 or 8.0.\n(§3) To examine the susceptibility of CRA-1 to trypsin and chymotrypsin, 1 ml CRA-1 solution at pH 5.0 was mixed with 1 ml trypsin solution at pH 5.0 and 1 ml PBS (pH 5.0) to obtain a final concentration of 1 mg/ml CRA-1 and 1 mg/ml trypsin. Similar assay samples were prepared to examine the stability of CPA-1 in trypsin at pH 7.0 or pH 8.0 and in chymotrypsin at pH 5.0, 7.0 or 8.0. As a control, an assay sample was prepared without trypsin or chymotrypsin.\n(§4) Immediately upon preparing an assay sample, 100 μl of the incubation mixture was removed and the reaction was terminated by adding 100 μl of a Stop solution (90% acetonitrile containing 0.1% trifluoroacetic acid). These samples were analyzed by HPLC to determine the amount of CRA-1 present in each sample at the initiation of the reaction.\n(§5) The remainder of each assay sample was incubated in an oven at 37° C. At selected times after beginning the incubation, a 100 μl aliquot was withdrawn, the reaction was terminated as described above. The samples were analyzed by HPLC to determine the amount of intact CRA-1."}, "[5]": {"assay": "Binding of CRA-1 to Amberlite IRP-69 cation exchange resin (HPLC of filtrate)", "type": "physicochemical", "experimental": "CRA-1, which has the amino acid sequence Ac-Nle-Gln-His-(D)Phe-Arg-(D)Trp-Gly-NH2, was prepared as described in U.S. Pat. No. 5,420,109, where it is referred to as \"EX-2.\" A 1 mg/ml solution of peptide CRA-1 was prepared by dissolving 19.7 mg CRA-1 in 19.7 ml PBS. Ten mg Amberlite® IRP-69 (\"IRP-69\") (Rohm and Haas) was added to 5 ml CRA-1 solution (5 mg CRA-1) to achieve a CRA-1:IRP-69 ratio of 1:2. The mixture was adjusted to pH 6.0 and stirred for 2 hr. The suspension then was filtered and the filtrate was analyzed by HPLC (see Example II.A) to determine the total amount of CRA-1 bound to IRP-69. Binding also was performed using CRA-1:IRP-69 ratios of 1:20 and 1:200."}, "chymotrypsin [6]": {"biological_target": "T1, chymotrypsin", "assay": "Susceptibility of free peptide to enzymatic degradation by chymotrypsin", "type": "in vitro ADME", "settings": "37° C.", "experimental": "as §2, §3, §4, §5"}, "trypsin [7]": {"test_system": "T3, trypsin", "T3 construct": "gene PRSS1", "assay": "Stability of peptide-ion exchange resin complex to enzymatic degradation by trypsin", "type": "in vitro ADME", "settings": "isolated enzyme trypsin, pH 7, unbound control, read-out: CRA-1 remaining", "experimental": "as §1"}, "trypsin [8]": {"biological_target": "T2, trypsin", "assay": "Stability of peptide-ion exchange resin complex to enzymatic degradation by trypsin", "type": "in vitro ADME", "settings": "unbound control", "experimental": "as §1"}},
  "note": "Several values for one entry are separate records, joined by “and”; a condition that tells them apart may be missing. Equal values may be shown once.",
  "data": [
    {"smiles": "CCCC[C@H](NC(C)=O)C(=O)N[C@@H](CCC(N)=O)C(=O)N[C@@H](Cc1c[nH]cn1)C(=O)N[C@H](Cc1ccccc1)C(=O)N[C@@H](CCCNC(=N)N)C(=O)N[C@H](Cc1c[nH]c2ccccc12)C(=O)NCC(N)=O", "note": "[CRA-1, Ac-Nle-Gln-His-(D)Phe-Arg-(D)Trp-Gly-NH2]", "values": [
      {"measurement": "remaining at 2 h", "setting": "chymotrypsin [1]", "value": 5.47, "unit": "%"},
      {"measurement": "CRA-1 remaining", "setting": "chymotrypsin [2]", "value": "almost completely degraded"},
      {"measurement": "CRA-1 bound to ion exchange resin", "setting": "[3]; IRP-64, peptide:resin ratio 1:1, PBS pH 6.0, stirred 1 hr", "value": 10.48, "unit": "%"},
      {"measurement": "CRA-1 bound to ion exchange resin", "setting": "[3]; IRP-64, peptide:resin ratio 1:2, PBS pH 6.0, stirred 1 hr", "value": 20.08, "unit": "%"},
      {"measurement": "CRA-1 bound to ion exchange resin", "setting": "[3]; IRP-64, peptide:resin ratio 1:10, PBS pH 6.0, stirred 1 hr", "value": 97.55, "unit": "%"},
      {"measurement": "CRA-1 bound to ion exchange resin", "setting": "[3]; IRP-64, peptide:resin ratio 1:20, PBS pH 6.0, stirred 1 hr", "value": 98.97, "unit": "%"},
      {"measurement": "stability in the presence of trypsin", "setting": "trypsin [4]; pH 5.0, 1 mg/ml CRA-1, 1 mg/ml trypsin", "value": "stable"},
      {"measurement": "half-life of degradation by trypsin", "setting": "trypsin [4]; pH 7.0 or 8.0, 1 mg/ml CRA-1, 1 mg/ml trypsin", "value": "20 to 30", "unit": "min"},
      {"measurement": "CRA-1 bound to ion exchange resin", "setting": "[5]; IRP-69, peptide:resin ratio 1:2, PBS pH 6.0, stirred 2 hr", "value": 66.91, "unit": "%"},
      {"measurement": "CRA-1 bound to ion exchange resin", "setting": "[5]; IRP-69, peptide:resin ratio 1:20, PBS pH 6.0, stirred 2 hr", "value": 99.63, "unit": "%"},
      {"measurement": "CRA-1 bound to ion exchange resin", "setting": "[5]; IRP-69, peptide:resin ratio 1:200, PBS pH 6.0, stirred 2 hr", "value": "99.5% and 99.52%"},
      {"measurement": "stability in the presence of chymotrypsin", "setting": "chymotrypsin [6]; pH 5.0, 1 mg/ml CRA-1, 1 mg/ml chymotrypsin", "value": "stable"},
      {"measurement": "half-life of degradation by chymotrypsin", "setting": "chymotrypsin [6]; pH 7.0 or 8.0, 1 mg/ml CRA-1, 1 mg/ml chymotrypsin", "value": "20 to 30", "unit": "min"},
      {"measurement": "remaining at 2 h", "setting": "trypsin [7]", "value": 2.96, "unit": "%"},
      {"measurement": "CRA-1 remaining", "setting": "trypsin [8]", "value": "almost completely degraded"}
    ]}
  ]
}
